Experimental data as given in US7772180B2, “Hepatitis C virus inhibitors” (Bristol-Myers Squibb Company, priority 2006, dated 2010).
Read-outs that look alike come from different tables or passages of the source.

Columns and labels:
[1] = target: T1, HCV NS3/4A protease complex, BMS strain (UniProt P27958, species not given/STRAIN_BMS); experiment: FRET peptide assay to monitor HCV NS3/4A proteolytic activity (BMS strain); assay type: biochemical, Hepatitis C virus (genotype 1a)
T1 construct: other: NS3/4A BMS strain; activity range class; numeric values, unit not given; said of H77 and J4L6S; fused on or other part: A three-lysine solubilising tail at the C-terminus of NS4A; A His tag is implied by the pET21b vector and Ni-NTA purification; Both are printed for the H77 and J4L6S constructs and apply to BMS by inference
T1 sequence (P27958 1027-1657, change not shown, one chain of several): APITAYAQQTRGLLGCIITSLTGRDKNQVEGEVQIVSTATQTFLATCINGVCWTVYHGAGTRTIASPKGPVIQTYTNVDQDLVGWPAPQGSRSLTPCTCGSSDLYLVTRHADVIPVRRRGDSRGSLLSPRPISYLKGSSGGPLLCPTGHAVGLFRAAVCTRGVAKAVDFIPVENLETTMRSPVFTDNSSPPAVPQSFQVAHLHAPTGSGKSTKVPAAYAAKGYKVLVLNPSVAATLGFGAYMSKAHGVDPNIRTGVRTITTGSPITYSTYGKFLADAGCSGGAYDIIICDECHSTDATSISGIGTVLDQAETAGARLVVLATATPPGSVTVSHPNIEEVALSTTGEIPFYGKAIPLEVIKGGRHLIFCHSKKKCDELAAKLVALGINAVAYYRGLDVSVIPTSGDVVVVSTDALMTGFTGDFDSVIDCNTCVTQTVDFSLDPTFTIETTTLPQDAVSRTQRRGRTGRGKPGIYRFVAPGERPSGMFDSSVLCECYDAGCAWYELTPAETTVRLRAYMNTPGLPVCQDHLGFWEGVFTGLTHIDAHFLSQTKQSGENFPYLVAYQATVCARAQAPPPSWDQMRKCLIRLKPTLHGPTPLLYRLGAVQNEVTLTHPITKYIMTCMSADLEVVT
In short: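 Inhibition measured by real-time fluorescence increase as the protease cleaves RET S1 FRET depsipeptide (2 μM final). Enzyme: >90% pure BMS-strain (1a) NS3/4A at 2-3 nM final, or 300 pM with 50 μg/ml BSA for potent compounds. Buffer: 50 mM HEPES pH 7.5, 0.15 M NaCl, 0.1% Triton, 15% glycerol, 10 mM βME.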

[2] = test system: HCV replicon (strain 1b) in HUH-7 cells; experiment: HCV replicon FRET assay; assay type: cell-based, Hepatitis C virus
[3] = read-out: HCV Protease (IC50); NS3/4A BMS strain; activity range class
[4] = Hepatitis C virus, Huh-7, read-out: HCV Pro Replicon (EC50), HCV replicon cell assay, activity range class
[5] = read-out: HCV Pro Replicon (EC50), HCV replicon cell assay, activity range class

Row | Compound | IC50 [1, 3] [nM] | EC50 [2, 4] [nM] | other results
1 | C=C[C@@H]1C[C@]1(NC(=O)[C@@H]1C[C@@H](Oc2ncc(OC)c3ccc(Cl)cc23)CN1C(=O)[C@@H](Nc1ccc(C(=O)NC(C)(C)c2ccccc2)cc1)C(C)(C)C)C(=O)NS(=O)(=O)C1CC1 [Compound 222A, 3-methyl-N-(4-((1-methyl-1-phenylethyl)carbamoyl)phenyl)-L-valyl-(4R)-4-((7-chloro-4-methoxy-1-isoquinolinyl)oxy)-N-((1R2S)-1-((cyclopropylsulfonl)carbamoyl)-2-vinylcyclopropyl)-L-prolinamide] |  |  | IC50 ([1]; NS3/4A BMS strain; activity range class; read-out: HCV Protease (IC50)): 0.6 to 20 nM; EC50 ([2]; HCV replicon cell assay, activity range class, read-out: HCV Pro Replicon (EC50)): 3 to 100 nM
2 | C=C[C@@H]1C[C@]1(NC(=O)[C@@H]1C[C@@H](Oc2ncc(OC)c3ccc(Cl)cc23)CN1C(=O)[C@H](CC)Nc1nsnc1OCC)C(=O)NS(=O)(=O)C1CC1 [Compound 233A, (4R)-4-((7-chloro-4-methoxy-1-isoquinolinyl)oxy)-N-((1R,2S)-1-((cyclopropylsulfonyl)carbamoyl)-2-vinylcyclopropyl)-1-((2S)-2-((4-ethoxy-1,2,5-thiadiazol-3-yl)amino)butanoyl)-L-prolinamide] | 20 to 200 | 100 to 1000 | 
3 | C=C[C@@H]1C[C@]1(NC(=O)[C@@H]1C[C@@H](Oc2ncc(OC)c3ccc(Cl)cc23)CN1C(=O)C(C)Nc1n[s+]([O-])nc1OC)C(=O)NS(=O)(=O)C1CC1 (some centres unmarked) [Compound 236] | > 200 | > 1000 | 
4 | C=C[C@@H]1C[C@]1(NC(=O)[C@@H]1C[C@@H](Oc2ncc(OC)c3ccc(Cl)cc23)CN1C(=O)C(C)Nc1n[s+]([O-])nc1OCC)C(=O)NS(=O)(=O)C1CC1 (some centres unmarked) [Compound 237] | > 200 | > 1000 | 
5 | C=C[C@@H]1C[C@]1(NC(=O)[C@@H]1C[C@@H](Oc2ncc(OC)c3ccc(Cl)cc23)CN1C(=O)C(C)Nc1nsnc1OC)C(=O)NS(=O)(=O)C1CC1 (some centres unmarked) [Compound 238] | 20 to 200 | 100 to 1000 | 
6 | C=C[C@@H]1C[C@]1(NC(=O)[C@@H]1C[C@@H](Oc2ncc(OC)c3ccc(Cl)cc23)CN1C(=O)C(C)Nc1nsnc1OCC)C(=O)NS(=O)(=O)C1CC1 (some centres unmarked) [Compound 239] | > 200 | 100 to 1000 | 
7 | C=C[C@@H]1C[C@]1(NC(=O)[C@@H]1C[C@@H](Oc2ncc(OC)c3ccc(Cl)cc23)CN1C(=O)C(CC)Nc1nsnc1OC)C(=O)NS(=O)(=O)C1CC1 (some centres unmarked) [Compound 240] | 0.6 to 20 | 100 to 1000 | 
8 | C=C[C@@H]1C[C@]1(NC(=O)[C@@H]1C[C@@H](Oc2ncc(OC)c3ccc(Cl)cc23)CN1C(=O)C(CC)Nc1nsnc1OC)C(=O)CS(=O)(=O)C1CC1 (some centres unmarked) [Compound 241] | > 200 | > 1000 | 
9 | C=C[C@@H]1C[C@]1(NC(=O)[C@@H]1C[C@@H](Oc2ncc(OC)c3ccc(Cl)cc23)CN1C(=O)C(Nc1nsnc1OC)C(C)C)C(=O)NS(=O)(=O)C1CC1 (some centres unmarked) [Compound 242] | 0.6 to 20 | 3 to 100 | 
10 | C=C[C@@H]1C[C@]1(NC(=O)[C@@H]1C[C@@H](Oc2ncc(OC)c3ccc(Cl)cc23)CN1C(=O)C(Nc1nsnc1OCC)C(C)(C)C)C(=O)NS(=O)(=O)C1CC1 (some centres unmarked) [Compound 243] | 0.6 to 20 | 3 to 100 | 
11 | C=CCCCCCC(Nc1ccc(OC)nc1)C(=O)N1C[C@H](Oc2ncc(OC)c3ccc(Cl)cc23)C[C@H]1C(=O)N[C@]1(C(=O)NS(=O)(=O)C2CC2)C[C@H]1C=C (some centres unmarked) [Compound 410] | > 200 |  | EC50 [2, 5]: 3 to 100 nM
12 | C=CCCCCCC(Nc1ccc(OC)nc1)C(=O)N1C[C@H](Oc2ncc(OC)c3ccc(Cl)cc23)C[C@H]1C(=O)N[C@]1(C(=O)NS(=O)(=O)C2CC2)C[C@H]1C=C (some centres unmarked) [Compound 411] | > 200 |  | EC50 [2, 5]: 100 to 1000 nM
13 | (4R)-4-((7-chloro-4-methoxy-1-isoquinolinyl)oxy)-N-((1R,2S)-1-((cyclopropylsulfonyl)carbamoyl)-2-vinylcyclopropyl)-1-((2R)-2-((4-ethoxy-1,2,5-thiadiazol-3-yl)amino)butanoyl)-L-prolinamide [Compound 233B] |  |  | IC50 ([1]; NS3/4A BMS strain; numeric values, unit inferred; read-out: HCV Protease (IC50)): 1300 nM; EC50 ([2]; HCV replicon cell assay, numeric values, unit inferred, read-out: HCV Pro Replicon (EC50)): 2630 nM
